SMILES strings stand for the structures. Counter-ions that a name gives are not always drawn.

One may read the melting point as the temperature, or range, at which the solid turns liquid.

Data set [1] relates to Candida kefyr. Kind of data set: Measurement of antifungal activity in vitro (lowest active dose) vs. Candida kefyr. Conditions: lowest concentration inhibiting growth below 35% of control growth; CYG broth, 37° C. for 48 h, turbidimetry. Format: cell-based. As for the experimental part:
(§1) Test compounds were dissolved at a concentration of 10^−2 M in dimethyl sulfoxide (DMSO) and diluted into CYG broth (Odds, F. C. Antimicrobial Agents and Chemotherapy 1992; 36: 1727-1737) to give a final concentration of 25 μM and, in most tests, 5 μM. For some compounds the tests were done at 100, 10, 1.0 and 0.1 μM. Cultures were inoculated with Candida.kefyr to an initial concentration of 10^4/ml and with Trichophyton rubrum to an equivalent concentration determined by turbidimetry. Cultures were incubated in the wells of microdilution plates at 37° C. for 48 h (C. kefyr) and at 30° C. for 5-7 days (T. rubrum). Growth in wells containing test compounds was estimated turbidimetrically as a percentage of growth in compound-free controls and the lowest concentration of compound that inhibited the growth of an isolate below 35% of control growth was recorded as the lowest active dose (LAD).

For data set [2], the system named is Trichophyton rubrum. Kind of data set: Measurement of antifungal activity in vitro (lowest active dose) vs. Trichophyton rubrum. It is filed as cell-based. The settings on record: lowest concentration inhibiting growth below 35% of control growth; CYG broth, 30° C. for 5-7 days, turbidimetry. As for the experimental part: as §1

The molecule `CC(C)N(C)C(=O)Nc1ccc(N2CCN(c3ccc(OCC4OCC(Cn5cncn5)(c5ccc(F)cc5F)O4)cc3)CC2)cc1` (stereo not drawn) (as salt: HCl) [Compound 54, (B-cis)-N-[4-[4-[4-[[4-(2,4-difluorophenyl)-4-(1H-1,2,4-triazol-1-yl-methyl)-1,3-dioxolan-2-yl]methoxy]phenyl]-1-piperazinyl]phenyl]-N′-methyl-N′-(1-methylethyl)urea] registered a melting point of 186 °C.

For the molecule `CC(C)N1CCN(c2ccc(N3CCN(c4ccc(OC[C@@H]5OC[C@@](Cn6cncn6)(c6ccc(F)cc6F)O5)cc4)CC3)cc2)C1=O` (stereo in doubt) [Compound 41], the “LAD (μM) vs. C. keyr” value in data set [1] is recorded as “≦0.1 μM”. Moreover, the “LAD (μM) vs. T. rubrum” value in data set [2] is “≦0.1 μM”.

For `CC(C)N1CCN(c2ccc(N3CCN(c4ccc(OC[C@H]5OC[C@](Cn6cncn6)(c6ccc(F)cc6F)O5)cc4)CC3)cc2)C1=O.Cl` (stereo in doubt) [Compound 52, (2S-cis)-1-[4-[4-[4-[[4-(2,4-difluorophenyl)-4-(1H-1,2,4-triazol-1-ylmethyl)-1,3-dioxolan-2-yl]methoxy]phenyl]-1-piperazinyl]phenyl]-3-(1-methylethyl)-2-imidazolidinone hydrochloride (1:1)], the “LAD (μM) vs. C. keyr” value in data set [1] is given as “≦0.1 μM”. Moreover, in data set [2], the “LAD (μM) vs. T. rubrum” value is given as “≦0.1 μM”.

On to `CCCn1c(=O)n(CC)c(=O)n(-c2ccc(N3CCN(c4ccc(OC[C@@H]5OC[C@@](Cn6cncn6)(c6ccc(F)cc6F)O5)cc4)CC3)cc2)c1=O` [Compound 46], for which, in data set [1], the “LAD (μM) vs. C. keyr” value was 1 µM. Besides, the “LAD (μM) vs. T. rubrum” value in data set [2] worked out at 100 µM.

Consider `CCN1C(=O)N(c2ccc(N3CCN(c4ccc(OC[C@H]5OC[C@](Cn6cncn6)(c6ccc(F)cc6F)O5)cc4)CC3)cc2)C(=O)C(C)(C)C1=O` [Compound 49], for which the “LAD (μM) vs. C. keyr” value in data set [1] turned out to be 1 µM. The “LAD (μM) vs. T. rubrum” value in data set [2] is 1 µM.

`CC(C)N1CCN(c2ccc(N3CCN(c4ccc(OC[C@@H]5OC[C@@](Cn6cncn6)(c6ccc(F)cc6F)O5)cc4)CC3)cc2)C1=O` [Compound 50]: the “LAD (μM) vs. C. keyr” value in data set [1] worked out at 1 µM. Also, the “LAD (μM) vs. T. rubrum” value in data set [2] turned out to be 1 µM.

Molecule `CC(C)N1CCN(c2ccc(N3CCN(c4ccc(OC[C@H]5OC[C@](Cn6cncn6)(c6ccc(F)cc6F)O5)cc4)CC3)cc2)C1=O` [Compound 51, (2S-cis)-1-[4-[4-[4-[[4-(2,4-difluorophenyl)-4-(1H-1,2,4-triazol-1-ylmethyl)-1,3-dioxolan-2-yl]methoxy]phenyl]-1-piperazinyl]phenyl]-3-(1-methylethyl)-2-imidazolidinone] gave a melting point of 177.8 °C. Moreover, the “LAD (μM) vs. C. keyr” value in data set [1] is given as “≦0.1 μM”. For the same molecule, in data set [2], the “LAD (μM) vs. T. rubrum” value is reported as “≦0.1 μM”.

In the case of `CC(C)NC(=O)Nc1ccc(N2CCN(c3ccc(OCC4OCC(Cn5cncn5)(c5ccc(F)cc5F)O4)cc3)CC2)cc1` (stereo not drawn) [Compound 53, (2S-cis)-N-[4-[4-[4-[[4-(2,4-difluorophenyl)-4-(1H-1,2,4-triazol-1-ylmetyl)-1,3-dioxolan-2-yl]-methoxy]phenyl]-1-piperazinyl]phenyl]-N′-(1-methylethyl)urea], the melting point is 196 °C.

The values above are taken from patent US6387906B1, “2,4,4-trisubstituted-1,3-dioxolane antifungals” (priority 1997, dated 2002).
